Measured values from article PMC6630718, “Discovery of Novel UV-Filters with Favorable Safety Profiles in the 5-Arylideneimidazolidine-2,4-dione Derivatives Group” (Molecules, 2019).

Legend:
[1] = Solubility in cosmetic solvents / macrogol formulations; assay type: physicochemical; conditions: typical cosmetic solvents / formulations used
Description: The composition of formulations and concentration of tested compounds were based on their limited solubility. N-monosubstituted compounds 2a–2e were insoluble at desirable concentrations in the typical solvents used in cosmetic formulations such as alcohols, triacetin, surfactants, and co-surfactants. To dissolve compounds 2a and 2b before incorporation to the formulation DMSO: Tween 20 (1:9 w/w) was used, for less soluble 2c–2e it was necessary to use DMSO alone as solvent. […] Thus the detailed composition of the formulations is as follows: F1–Tween 20 43.2%, PEG-400 25%, PEG-1500 25%, Triacetin 4.8%, tested compound 2%; F2–Tween 20 43.2%, PEG-400 25%, PEG-1500 25%, DMSO 4.8%, tested compound 2%; F3–PEG-400 25%, PEG-1500 25%, DMSO 48%, tested compound 2%. Considering the disadvantages of currently reported macrogol formulations and the low concentration achieved for the tested compounds (2%), we plan to work on cosmetic emulsions containing the most promising derivatives at higher concentrations as well as required excipients including preservatives, antioxidants, etc. This research will be carried out in the near future.

[2] = In vitro stability in mouse liver microsomes; assay type: in vitro ADME; conditions: for ester hydrolysis in the presence of microsomes: independently of the presence of a NADPH-regenerating system; for Probable Transformation / half-life at 20 µM / microsomal CLint at 20 µM: mouse liver microsomes; for half-life at 20 µM / microsomal CLint at 20 µM: mouse; for half-life at 20 µM: pH 7.4, mouse liver microsomes 0.8 mg/mL, 20 µM compound, NADPH-regenerating system, 37 °C, read-out: t ½; for microsomal CLint at 20 µM: pH 7.4, mouse liver microsomes, calculated from t1/2
Method in brief: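 Compound (20 µM) with mouse liver microsomes (0.8 mg/mL), potassium phosphate pH 7.4, NADPH-regenerating system, 37 °C for 15–60 min; parent remaining by UPLC/MS, two repeats. t1/2 from ln % remaining versus time; Clint = (incubation volume/protein) × 0.693/t1/2.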

CCOC(=O)CN1C(=O)/C(=C/c2ccc(OC)cc2)N(CC(=O)OCC)C1=O [Compound 3b, Diethyl 2,2′-((Z)-4-(4-methoxybenzylidene)-2,5-dioxoimidazolidine-1,3-diyl)diacetate]
solubility (in words) [1]: very good solubility | ester hydrolysis in the presence of microsomes [2]: hydrolysed to monoesters | Probable Transformation [2]: hydrolysis O-dealkylation | half-life at 20 µM [2]: 12 min | microsomal CLint at 20 µM [2]: 75 µL/min/mg

CCOC(=O)CN1C(=O)/C(=C/C=C/c2ccc(OC)cc2)N(CC(=O)OCC)C1=O [Compound 4g, Diethyl 2,2′-((Z)-4-((E)-3-(4-methoxyphenyl)allylidene)-2,5-dioxoimidazolidine-1,3-diyl)diacetate]
ester hydrolysis in the presence of microsomes [2]: hydrolysed to monoesters | Probable Transformation [2]: hydrolysis O-dealkylation | half-life at 20 µM [2]: 3 min | microsomal CLint at 20 µM [2]: > 300 µL/min/mg
